# Measured values published in patent EP2077260B1, “AMIDE COMPOUND OR SALT THEREOF, AND BIOFILM FORMATION INHIBITOR, BIOFILM REMOVER AND BACTERICIDE EACH USING THE AMIDE COMPOUND OR SALT THEREOF” (The University of Tokyo, priority 2006, dated 2008).
# Where two headings read alike, the source gives them in different places.
# Legend:
# [1] = system: Staphylococcus aureus ATCC 29213; conditions: Publicly-known data, CLSI(M100-S16)2006 liquid dilution method; cited from earlier work
# [2] = system: Escherichia coli ATCC 25922; conditions: Publicly-known data, CLSI(M100-S16)2006 liquid dilution method; cited from earlier work
# [3] = system: Pseudomonas aeruginosa ATCC 27853; conditions: Publicly-known data, CLSI(M100-S16)2006 liquid dilution method; cited from earlier work
# [4] = system: Pseudomonas aeruginosa ATCC 27853; assay: Evaluation test for disinfecting effect, broth dilution method CLSI(M7-A7)2006; format: cell-based; conditions: 37°C, 18 hours
# Excerpt: (§1) The following test compounds were examined for the disinfecting activities against Pseudomonas aeruginosa, E.. Coli and staphylococcus aureus, according to a broth dilution method of "CLSI(M7-A7)2006" (Clinical and Laboratory Standards Institute, M7-A7, Methods for Dilution Antimicrobial Susceptibility Tests for Bacteria That Grow Aerobically; Approved Standard-Seventh Edition, 2006),
# (§2) • Pseudomonas aeruginosa PAO1 • Pseudomonas aeruginosa ATCC 27853 • Escherichia coli ATCC 25922 • Staphylococcus aureus ATCC 29213 • Staphylococcus aureus Methicillin resistant (MRSA) ATCC 43300
# (§3) Each of above-mentioned bacteria was inoculated in a TSB culture medium (Bacto TSB Broth, product of BD) for overnight cultivation at 37°C. The culture solution was applied to a TSB agar plate for about a 20-hour cultivation to form colonies. Three to five colonies were taken from the agar plate, and an average colony of them was inoculated in a 4mL TSB culture medium.. The colony was cultivated at 35°C until the number of microorganisms became 1 × 10^8 to 2 x 10^8 CFU/mL. The number of microorganisms with time was found by measuring changes in absorbency at 590nm of culture solution with time. When the turbidity became equivalent to 0.5 McFarland standard, it was determined that the number of microorganisms reached the target level = 1 × 10^8 to 2 × 10^8 CFU/mL.
# (§4) The bacillus culture solution thus obtained was diluted 10-fold within 15 minutes, and a 5µL portion was inoculated in each well of an evaluation 96-well microplate. This 96-well microplate was a sterilized 96-well microplate with U-shaped bottoms (Falcon 35-3918: product of BD), and each well was filled with a 100µL portion of MH culture medium (BBL MH Broth: product of BD). Within 15 minutes after inoculation of the bacillus culture solutions, the test compounds were supplied to the well in a manner of 2-fold graded dilution. The cultivation was then carried out at 37°C for 18 hours.
# (§5) The MIC was determined as follows. "S (susceptible)" indicates a concentration which caused 80% or more reduction in the diameter of the aggregation deposited in the bottom of the well, compared to when the test liquid is not used. "R (Resistant)" indicates a concentration that caused less than 80% reduction in diameter. The reduction was measured visually.. "I(Intermediate)" indicates a concentration that cannot be measured visually
# [5] = system: Escherichia coli ATCC 25922; assay: as above; format: cell-based; conditions: 37°C, 18 hours
# Excerpt: as §1, §2, §3, §4, §5
# [6] = system: Pseudomonas aeruginosa PAO1; assay: as above; format: cell-based; conditions: 37°C, 18 hours
# Excerpt: as §1, §2, §3, §4, §5
# [7] = system: Staphylococcus aureus ATCC 29213; assay: as above; format: cell-based; conditions: 37°C, 18 hours
# Excerpt: as §1, §2, §3, §4, §5
# [8] = system: Staphylococcus aureus Methicillin resistant (MRSA) ATCC 43300; assay: as above; format: cell-based; conditions: 37°C, 18 hours
# Excerpt: as §1, §2, §3, §4, §5
# [9] = system: Pseudomonas aeruginosa (gfp expression PAO1-strain); assay: Evaluation test for biofilm formation inhibition effect against Pseudomonas aeruginosa (flow cell system, fluorescence confocal microscope); format: cell-based; conditions: test liquid 100µM; observed up to 84 hours; compared with control test liquid (huge, thick biofilm)
# Description: With the flow cell system shown in FIG. 1, an inhibitory effect against biofilm formation by Pseudomonas aeruginosa was evaluated for each of the amide compounds produced in Production Examples 1, 3, 5, 6 and 7 (Compounds 1a-1, 1b-1, 1c-1, 1c-2, 1d-1), and for each of Comparative Compounds (Comparative Example) 1 to 3 denoted by the following formulas. [drawing 20] [drawing 21] [drawing 22]
# A culture medium bottle (1), a peristaltic pump (2), a glass cell (4) and a waste fluid bottle (5) are connected via a silicon tube (6) so that a culture medium (9) is supplied to the glass cell (4) from the culture medium bottle (1) using the peristaltic pump (2). The system includes an air removal section (3) between the peristaltic pump (2) and a turncock (7a), for removing the entrained air. All instruments in the flow cell system are sterilized using gamma-rays or an autoclave.
# As specifically described later, the inhibitory effect against biofilm formation of each of the amide compounds is examined in the following manner.. Bacteria are cultured in a glass cell (4) to grow a biofilm on the inner wall of the cell, and a test liquid containing one of the amide compounds is applied to the biofilm. Then the state of the biofilm is observed to evaluate the inhibitory effect against biofilm formation of the compound using a fluorescence confocal microscope (Leica TCS SP2: product of Leica). […]
# [10] = system: Porphyromonas gingivalis 381-strain (clinical strain); assay: Evaluation test for biofilm formation inhibition effect against periodontitis pathogenic bacteria (flow cell system, HA disks, turbidity); format: cell-based; conditions: Porphyromonas gingivalis, 336 h; 100µM; 14 days; relative to control test liquid (Mean Comparison OD Value); read-out: Biofilm Formation Inhibition Rate(%)
# Description: As with Experiment Example 1, using the flow cell system of FIG. 1, an inhibitory effect against biofilm formation by periodontitis pathogenic bacteria was evaluated for each of the amide compounds produced in Production Examples 1, 3, 5, and 6 (Compounds 1a-1, 1b-1, 1c-1, 1c-2).
# Periodontitis pathogenic bacteria Porphyromonas gingivalis 381-strain (clinical strain) was used..
# A GAM culture medium containing hemin 5µg/L and menadione 1µg/L was used.
# The 381-strain was inoculated in the GAM culture medium, and cultivated until stationary phase (OD550=1.8). Then the culture medium was diluted 20-fold by a fresh GAM culture medium containing the above-mentioned substances.
# The test liquid was prepared by dissolving 100µM of each of the Compounds 1a-1, 1b-1, 1c-1, or 1c-2 according to Production Examples 1, 3, 5 and 6 and 100µM of Comparative Compounds 1 and 2 as comparative examples in dimethyl sulfoxide (DMSO), and supplying the resulting DMSO solutions to the above-mentioned bacterial suspensions so that the concentration of each compound becomes 0.1%(v/v).
# A DMSO not containing the compound was used as a control test liquid.
# The glass cell (4) of the flow cell system (see FIG. 1) was replaced with a stainless cell (3 x 7 x 120mm), and 10 hydroxyapatite (HA) disks (6mm in diameter, 1mm in thickness) were placed in the cell. The HA disks had been subjected to salivary treatment overnight. Each of the test liquids and control test liquids was circulated in the system at a flow rate of 8mL/min for 14 days, Note that the test liquids and the control test liquids were replaced with fresh liquids every two days.
# After the cultivation, the HA disks were dipped in 300µL of sterile distilled water, and treated by supersonic wave for 30 minutes at 4°C, The biofilms formed in the HA disks were peeled off and suspended in distilled water. Then, 100µL of the suspension liquid was measured for the turbidity with an absorptiometer (C07500 colorimeter, product of Funakoshi) (measurement wavelength = 550 nm).
# A mean OD was found based on the resulting OD values, excluding the minimum and maximum values, Also, a mean value of the turbidities for the Control Test Liquids was found in the same manner as the control mean OD value. A biofilm formation inhibition rate (Inhibition Rate) was found by the following formula. Biofilm Formation Inhibition Rate (%) = […] [formula]
# [11] = ATCC27853, I (Intermediate): concentration that cannot be measured visually, read-out: MIC (µg/mL) I
# [12] = ATCC27853, R (Resistant): concentration that caused less than 80% reduction in diameter of the aggregation, read-out: MIC (µg/mL) R
# [13] = ATCC27853, S (susceptible): concentration which caused 80% or more reduction in diameter of the aggregation, read-out: MIC (µg/mL) S
# [14] = ATCC25922, I (Intermediate): concentration that cannot be measured visually, read-out: MIC (µg/mL) I
# [15] = ATCC25922, R (Resistant): concentration that caused less than 80% reduction in diameter of the aggregation, read-out: MIC (µg/mL) R
# [16] = ATCC25922, S (susceptible): concentration which caused 80% or more reduction in diameter of the aggregation, read-out: MIC (µg/mL) S
# [17] = PAO1, I (Intermediate): concentration that cannot be measured visually, read-out: MIC (µg/mL) I
# [18] = PAO1, R (Resistant): concentration that caused less than 80% reduction in diameter of the aggregation, read-out: MIC (µg/mL) R
# [19] = PAO1, S (susceptible): concentration which caused 80% or more reduction in diameter of the aggregation, read-out: MIC (µg/mL) S
# [20] = ATCC29213, I (Intermediate): concentration that cannot be measured visually, read-out: MIC (µg/mL) I
# [21] = ATCC29213, R (Resistant): concentration that caused less than 80% reduction in diameter of the aggregation, read-out: MIC (µg/mL) R
# [22] = ATCC29213, S (susceptible): concentration which caused 80% or more reduction in diameter of the aggregation, read-out: MIC (µg/mL) S
# [23] = I (Intermediate): concentration that cannot be measured visually, read-out: MIC (µg/mL) I
# [24] = R (Resistant): concentration that caused less than 80% reduction in diameter of the aggregation, read-out: MIC (µg/mL) R
# [25] = S (susceptible): concentration which caused 80% or more reduction in diameter of the aggregation, read-out: MIC (µg/mL) S
"MIC [4, 11] [µg/mL]","MIC [4, 12] [µg/mL]","MIC [4, 13] [µg/mL]","MIC [5, 14] [µg/mL]","MIC [5, 15] [µg/mL]","MIC [5, 16] [µg/mL]","MIC [6, 17] [µg/mL]","MIC [6, 18] [µg/mL]","MIC [6, 19] [µg/mL]","MIC [7, 20] [µg/mL]","MIC [7, 21] [µg/mL]","MIC [7, 22] [µg/mL]","MIC [8, 23] [µg/mL]","MIC [8, 24] [µg/mL]","MIC [8, 25] [µg/mL]",SMILES,MIC (µg/mL) from M100-S16 [1] [µg/mL],MIC (µg/mL) from M100-S16 [2] [µg/mL],MIC (µg/mL) from M100-S16 [3] [µg/mL],state of biofilm formation [9],inhibition at 100 µM [10] [%]
2,≤ 1,≥ 4,0.125,≤ 0.063,≥ 0.25,1,≤ 0.5,≥ 2,4,≤ 2,≥ 8,8,≤ 4,≥ 16,"CC(C)(O/N=C(\C(=O)N[C@@H]1C(=O)N2C(C(=O)[O-])=C(C[n+]3ccccc3)CS[C@H]12)c1csc(N)n1)C(=O)O [CAZ, Ceftazidime]",4 to 16,0.06 to 0.5,1 to 4,,
,,,,,,,,,,,,,,,CCCCCCCCCC(=O)CC(=O)Nc1ccccc1O [Comparative Compound 1],,,,"the huge, thick biofilm was observed as in the control test",-36
,,,,,,,,,,,,,,,"CCCCCCCCCCCC(=O)NN1CCCCC1 [Compound 1d-1, N-(piperidin-1-yl) dodecanoyl amide]",,,,such biofilm formation was not observed,
0.5,≤ 0.25,≥ 1,0.5,≤ 0.25,≥ 1,0.5,≤ 0.25,> 1,0.25,≤ 0.125,≥ 0.5,128,≤ 64,≥ 256,"NC[C@H]1O[C@H](O[C@H]2[C@H](O)[C@@H](O[C@H]3O[C@H](CO)[C@@H](O)[C@H](N)[C@H]3O)[C@H](N)C[C@@H]2N)[C@H](N)C[C@@H]1O [TOB, Tobramycin]",0.12 to 1,0.25 to 1,0.25 to 1,,
